Reference: ChEMBL document CHEMBL1201862, “PubChem BioAssay data set” (2004)
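Test compounds were applied to cells in 96-well plates for 48 hours at 5 doses. At the GI50, growth is halved.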 The source made the active and inactive calls. Cut-off read from the data, not from the text of the source: active = GI50 up to about 1.1 µM and inactive = higher.

Tests used:
Assay in all cases: NCI anticancer screen, dose series, 48 h
ACHN = tested on: ACHN
CCRF-CEM = tested on: CCRF-CEM
DU-145 = tested on: DU-145
HCC 2998 = tested on: HCC 2998
HCT-116 = tested on: HCT-116
HL-60 = tested on: HL-60
HT-29 = tested on: HT-29
IGROV-1 = tested on: IGROV-1
K562 = tested on: K562
NCI-H522 = tested on: NCI-H522
OVCAR-5 = tested on: OVCAR-5
SF-268 = tested on: SF-268
SF-539 = tested on: SF-539
SK-MEL-2 = tested on: SK-MEL-2
SN12C = tested on: SN12C
T47D = tested on: T47D
UACC-62 = tested on: UACC-62
NCI-H460 = tested on: NCI-H460
SR = tested on: SR

SMILES | GI50 (ACHN) | GI50 (CCRF-CEM) | GI50 (DU-145) | GI50 (HCC 2998) | GI50 (HCT-116) | GI50 (HL-60) | GI50 (HT-29) | GI50 (IGROV-1) | GI50 (K562) | GI50 (NCI-H522) | GI50 (OVCAR-5) | GI50 (SF-268) | GI50 (SF-539) | GI50 (SK-MEL-2) | GI50 (SN12C) | GI50 (T47D) | GI50 (UACC-62) | GI50 (NCI-H460) | GI50 (SR)
C[C@H](NC(=O)C(Cc1ccccc1)(Cc1ccc(O)cn1)NC(=O)c1ccccc1)c1ccccc1 (some centres not stated) | 18.9 µM (inactive) | 30.5 µM (inactive) | 18.6 µM (inactive) | 16.5 µM (inactive) | 15.3 µM (inactive) | 25.1 µM (inactive) | 17.5 µM (inactive) | 16.3 µM (inactive) | 34 µM (inactive) | 15.5 µM (inactive) | 21.9 µM (inactive) | 18.2 µM (inactive) | 19.2 µM (inactive) | 14.2 µM (inactive) | 16.9 µM (inactive) | 18.5 µM (inactive) | 13.2 µM (inactive) |  | 
O=C1[C@H]2ON(c3ccccc3)C(c3ccccc3)[C@H]2C(=O)N1c1ccc(Cc2ccc(N3C(=O)[C@@H]4ON(c5ccccc5)C(c5ccccc5)[C@@H]4C3=O)cc2)cc1 (some centres not stated) | > 100 µM (inactive) | > 100 µM (inactive) |  | > 100 µM (inactive) |  | > 100 µM (inactive) | > 100 µM (inactive) | > 100 µM (inactive) | > 100 µM (inactive) |  | > 100 µM (inactive) | > 100 µM (inactive) | > 100 µM (inactive) | > 100 µM (inactive) | > 100 µM (inactive) |  | > 100 µM (inactive) | > 100 µM (inactive) | 
Cc1cn([C@H]2[C@@H](CO)C[C@H]2O)c(=O)[nH]c1=O | > 100 µM (inactive) | > 100 µM (inactive) | > 100 µM (inactive) | > 100 µM (inactive) | > 100 µM (inactive) | > 100 µM (inactive) | > 100 µM (inactive) | > 100 µM (inactive) | > 100 µM (inactive) | > 100 µM (inactive) | > 100 µM (inactive) | > 100 µM (inactive) | > 100 µM (inactive) | > 100 µM (inactive) | > 100 µM (inactive) |  |  | > 100 µM (inactive) | > 100 µM (inactive)
Cc1sc2ccccc2[n+]1CCC(=O)O | > 100 µM (inactive) |  | > 100 µM (inactive) |  | > 100 µM (inactive) | 11.5 µM (inactive) | > 100 µM (inactive) | > 100 µM (inactive) | 6.67 µM (inactive) | > 100 µM (inactive) | > 100 µM (inactive) | > 100 µM (inactive) | > 100 µM (inactive) | > 100 µM (inactive) | > 100 µM (inactive) | > 100 µM (inactive) | > 100 µM (inactive) | > 100 µM (inactive) | 
CC(=O)O[C@H]1C(=O)[C@]2(C)[C@@H](OC(=O)OCCC(O)CO)C[C@H]3OC[C@@]3(OC(C)=O)[C@H]2[C@H](OC(=O)c2ccccc2)[C@]2(O)C[C@H](OC(=O)[C@H](O)[C@@H](NC(=O)c3ccccc3)c3ccccc3)C(C)=C1C2(C)C (some centres not stated) | 3.48 µM (inactive) | < 0.01 µM (active) | 0.0125 µM (active) | < 0.01 µM (active) | < 0.01 µM (active) | < 0.01 µM (active) | < 0.01 µM (active) | < 0.0142 µM (active) | < 0.01 µM (active) | < 0.01 µM (active) | 0.0303 µM (active) | < 0.0171 µM (active) | < 0.01 µM (active) | 0.0265 µM (active) | < 0.0166 µM (active) |  | 0.0108 µM (active) | < 0.0126 µM (active) | < 0.01 µM (active)
C/C=C/c1c(O)c(=O)c2c(OC)cc(OC)c3c4c(OC)cc(OC)c5c(=O)c(O)c(/C=C/C)c(c1c23)c54 | 2.86 µM (inactive) | 5.46 µM (inactive) | 8.07 µM (inactive) | 16.6 µM (inactive) | 4.84 µM (inactive) |  | 6.22 µM (inactive) | 5.96 µM (inactive) | 3.4 µM (inactive) | 4.71 µM (inactive) | 20.5 µM (inactive) | 7.66 µM (inactive) | 3.61 µM (inactive) | 10.2 µM (inactive) | 16.5 µM (inactive) |  | 6.3 µM (inactive) | 9.48 µM (inactive) | > 100 µM (inactive)
CC(C)NC(=O)N(Nc1ccccc1)C(C)(C)C | > 100 µM (inactive) | > 100 µM (inactive) |  | > 100 µM (inactive) | > 100 µM (inactive) | 37.2 µM (inactive) | > 100 µM (inactive) | > 100 µM (inactive) | > 100 µM (inactive) |  | > 100 µM (inactive) |  | > 100 µM (inactive) | > 100 µM (inactive) | > 100 µM (inactive) |  | > 100 µM (inactive) | > 100 µM (inactive) | > 100 µM (inactive)
COc1nc2c(c(=O)[nH]1)N=C(c1ccc(Cl)cc1)CC(c1ccccc1)N2 (configuration not stated) | 23.1 µM (inactive) | 19.1 µM (inactive) | 40.6 µM (inactive) | 34 µM (inactive) | 34.3 µM (inactive) |  | 34.5 µM (inactive) | 31.9 µM (inactive) | 28.1 µM (inactive) | 20.3 µM (inactive) | 49.9 µM (inactive) |  | 21.6 µM (inactive) | 21.3 µM (inactive) | 22.7 µM (inactive) |  | 20.2 µM (inactive) | 27.1 µM (inactive) | 61.4 µM (inactive)
COc1cccc(/C=N/n2c(Cc3ccccc3)n[nH]c2=O)c1 | > 100 µM (inactive) | > 100 µM (inactive) | > 100 µM (inactive) | > 100 µM (inactive) | > 100 µM (inactive) |  | > 35.4 µM (inactive) |  | > 100 µM (inactive) | 16.8 µM (inactive) | > 100 µM (inactive) | 43 µM (inactive) | > 100 µM (inactive) | > 100 µM (inactive) | > 19.7 µM (inactive) | > 73.6 µM (inactive) | > 100 µM (inactive) | > 100 µM (inactive) | 
O=c1[nH]nc(-c2ccccc2)n1/N=C/c1cccs1 | 70 µM (inactive) | 43.1 µM (inactive) | 32.3 µM (inactive) | > 100 µM (inactive) | 36.7 µM (inactive) |  | 65.5 µM (inactive) |  | 38.1 µM (inactive) |  | > 100 µM (inactive) | > 100 µM (inactive) | 95.5 µM (inactive) | 99.5 µM (inactive) | 46.8 µM (inactive) | 38.1 µM (inactive) | 46.7 µM (inactive) | 36.3 µM (inactive) | 
C=C1C[C@]23CC[C@@H]4C(CO)(CO)CC(=O)C[C@]4(C)[C@@H]2CC[C@H]1C3 | > 100 µM (inactive) | > 100 µM (inactive) | > 100 µM (inactive) | > 100 µM (inactive) | > 100 µM (inactive) | > 100 µM (inactive) | > 100 µM (inactive) | 57.9 µM (inactive) | > 100 µM (inactive) | > 100 µM (inactive) | > 100 µM (inactive) | > 100 µM (inactive) | > 100 µM (inactive) | > 100 µM (inactive) | > 100 µM (inactive) |  | > 100 µM (inactive) | > 100 µM (inactive) | > 100 µM (inactive)
NCCCCN(CCCN)C(=O)c1ccccc1 | > 100 µM (inactive) | > 100 µM (inactive) | > 100 µM (inactive) | > 100 µM (inactive) | > 100 µM (inactive) | > 100 µM (inactive) | > 100 µM (inactive) | > 100 µM (inactive) | > 100 µM (inactive) | > 100 µM (inactive) | > 100 µM (inactive) | > 100 µM (inactive) | > 100 µM (inactive) | > 100 µM (inactive) | > 100 µM (inactive) | > 100 µM (inactive) | > 100 µM (inactive) | > 100 µM (inactive) | 
